In patent EP0094632A1, “(-)-15-Deoxyspergualin, a process for the preparation of the same, and a pharmaceutical composition containing the same” (priority 1982, dated 1983):

Experiments:
[1] = test system: Bacillus subtilis PCI-219; experiment: Antibacterial activity relative to (-)-spergualin; type: cell-based; settings: relative to (-)-spergualin (3HCl·½H2O)
Text: The compound was colorless and syrupy, and its melting point could not be measured clearly. […] The antibacterial activity against Bacillus subtilis PCI-219' was 134 % of that of (-)-spergualin (3HCl·½H2O).

[2] = test system: Mouse Leukemia L1210 cells; experiment: Treatment of mouse Leukemia L1210 (survival of intraperitoneally inoculated mice); type: in vivo; settings: for No. of mice that survived 60 days: groups of 8 mice; for T/C %: observed 60 days
Method: […] Mouse Leukemia L1210 cells were inoculated intraperitoneally to groups of 8 mice each. The test compound dissolved in physiological saline solution was intraperitoneally administered once daily for 9 consecutive days, starting on the day inoculation. The animals were raised and observed for 60 days to determine survival rates (%). The survival rates were calculated from the following equation:
T [average period (in days) of survival for the treatment group] X 100
C [average period (in days) for survival for the non-treatment group]
The average survival period for the control (non-treatment group was 7.6 go 8.9 days.
The test results are shown in Table 1 along with those on (-)-spergualin.
Table 1:Efficacy of (-)-15-deoxyspergualin in the treatment of mose Leukemia L1210

[3] = Carcinostatic action compared with synthetic 15-deoxyspergualin; settings: compared with 15-deoxyspergualin synthesized previously by condensation
[4] = Chemical stability; type: physicochemical
[5] = 0.05 mg/kg/day i.p. once daily for 9 days
[6] = 0.10 mg/kg/day i.p. once daily for 9 days
[7] = 0.20 mg/kg/day i.p. once daily for 9 days
[8] = 0.39 mg/kg/day i.p. once daily for 9 days
[9] = 0.78 mg/kg/day i.p. once daily for 9 days
[10] = 1.56 mg/kg/day i.p. once daily for 9 days
[11] = 3.13 mg/kg/day i.p. once daily for 9 days
[12] = 6.25 mg/kg/day i.p. once daily for 9 days
[13] = 12.5 mg/kg/day i.p. once daily for 9 days
[14] = 25 mg/kg/day i.p. once daily for 9 days
[15] = 50 mg/kg/day i.p. once daily for 9 days

N=C(N)NCCCCCCC(=O)NC(O)C(=O)NCCCCNCCCN (single isomer, unassigned; (-)) [(-)-15-Deoxyspergualin, (-)-15-deoxyspergualin]
antibacterial activity against Bacillus subtilis PCI-219, % of that of (-)-spergualin [1]: 134% | No. of mice that survived 60 days [2, 5]: 0/8 | T/C % [2, 5]: 129% | No. of mice that survived 60 days [2, 6]: 0/8 | T/C % [2, 6]: 138% | No. of mice that survived 60 days [2, 7]: 6/8 | T/C % [2, 7]: >664% | No. of mice that survived 60 days [2, 8]: 6/8 | T/C % [2, 8]: >629% | No. of mice that survived 60 days [2, 9]: 8/8 | T/C % [2, 9]: >789% | No. of mice that survived 60 days [2, 10]: 2/8 | T/C % [2, 10]: >493% | No. of mice that survived 60 days [2, 11]: 2/8 | T/C % [2, 11]: >526% | No. of mice that survived 60 days [2, 12]: 0/8 | T/C % [2, 12]: 408% | carcinostatic action [3]: markedly better carcinostatic action | stability to alkalis and acids ([4]; alkalis and acids): very unstable | stability in the form of a free base ([4]; free base): unstable

N=C(N)NCCCC[C@H](O)CC(=O)NC(O)C(=O)NCCCCNCCCN (single isomer, unassigned; (-)) [(-)-Spergualin, (-)-spergualin, reference compound]
No. of mice that survived 60 days [2, 9]: 0/8 | T/C % [2, 9]: 107% | No. of mice that survived 60 days [2, 10]: 1/8 | T/C % [2, 10]: >301% | No. of mice that survived 60 days [2, 11]: 3/8 | T/C % [2, 11]: >441% | No. of mice that survived 60 days [2, 12]: 8/8 | T/C % [2, 12]: >732% | No. of mice that survived 60 days [2, 13]: 4/8 | T/C % [2, 13]: >586% | No. of mice that survived 60 days [2, 14]: 0/8 | T/C % [2, 14]: 334% | No. of mice that survived 60 days [2, 15]: 0/8 | T/C % [2, 15]: 295%
